± gives the expanded uncertainty stated by the source.
Tests used:
[1] = Molar enthalpy of transition or fusion; details: Crystal; DSC
[2] = Crystal; DTA

Compound	Molar enthalpy of transition or fusion [1]	Normal melting temperature [2]
CC(=O)OCCNc1ccc([N+](=O)[O-])cc1 [2-[(4-nitrophenyl)amino]ethanol 1-acetate]	4.97 ± 0.191 kcal/mol	113.87 ± 1.1 °C
CCNc1ccc([N+](=O)[O-])cc1 [N-ethyl-4-nitroaniline]	5.43 ± 0.191 kcal/mol	95.06 ± 1.1 °C

The remaining lines, values ahead:

Molar enthalpy of transition or fusion [1]	Normal melting temperature [2]	Compound
8.01 ± 0.215 kcal/mol	71.87 ± 1.1 °C	CCN(C(=O)N(CC)c1ccccc1)c1ccccc1 [1,3-diethyl-1,3-diphenylurea]
7.91 ± 0.215 kcal/mol	120.00 ± 1.1 °C	CN(C(=O)N(C)c1ccccc1)c1ccccc1 [1,3-dimethyl-1,3-diphenylurea]
4.71 ± 0.167 kcal/mol	53.50 ± 1.1 °C	c1ccc(Nc2ccccc2)cc1 [diphenylamine]
